This is an account of results in patent US20240150377A1, “MODULATORS OF CYSTIC FIBROSIS TRANSMEMBRANE CONDUCTANCE REGULATOR” (VERTEX PHARMACEUTICALS INCORPORATED, priority 2020, published 2024).

Molecules are shown by their SMILES.

The target in the first experiment is T1, CFTR (Homo sapiens, UniProt P13569, DEL508-508).
T1 construct: endogenous in cells; host or cells: primary human bronchial epithelial cells from CF subjects (F508del/MF-HBE), differentiated at air-liquid interface
T1 sequence (P13569 with tags, fused parts or gaps DEL508-508): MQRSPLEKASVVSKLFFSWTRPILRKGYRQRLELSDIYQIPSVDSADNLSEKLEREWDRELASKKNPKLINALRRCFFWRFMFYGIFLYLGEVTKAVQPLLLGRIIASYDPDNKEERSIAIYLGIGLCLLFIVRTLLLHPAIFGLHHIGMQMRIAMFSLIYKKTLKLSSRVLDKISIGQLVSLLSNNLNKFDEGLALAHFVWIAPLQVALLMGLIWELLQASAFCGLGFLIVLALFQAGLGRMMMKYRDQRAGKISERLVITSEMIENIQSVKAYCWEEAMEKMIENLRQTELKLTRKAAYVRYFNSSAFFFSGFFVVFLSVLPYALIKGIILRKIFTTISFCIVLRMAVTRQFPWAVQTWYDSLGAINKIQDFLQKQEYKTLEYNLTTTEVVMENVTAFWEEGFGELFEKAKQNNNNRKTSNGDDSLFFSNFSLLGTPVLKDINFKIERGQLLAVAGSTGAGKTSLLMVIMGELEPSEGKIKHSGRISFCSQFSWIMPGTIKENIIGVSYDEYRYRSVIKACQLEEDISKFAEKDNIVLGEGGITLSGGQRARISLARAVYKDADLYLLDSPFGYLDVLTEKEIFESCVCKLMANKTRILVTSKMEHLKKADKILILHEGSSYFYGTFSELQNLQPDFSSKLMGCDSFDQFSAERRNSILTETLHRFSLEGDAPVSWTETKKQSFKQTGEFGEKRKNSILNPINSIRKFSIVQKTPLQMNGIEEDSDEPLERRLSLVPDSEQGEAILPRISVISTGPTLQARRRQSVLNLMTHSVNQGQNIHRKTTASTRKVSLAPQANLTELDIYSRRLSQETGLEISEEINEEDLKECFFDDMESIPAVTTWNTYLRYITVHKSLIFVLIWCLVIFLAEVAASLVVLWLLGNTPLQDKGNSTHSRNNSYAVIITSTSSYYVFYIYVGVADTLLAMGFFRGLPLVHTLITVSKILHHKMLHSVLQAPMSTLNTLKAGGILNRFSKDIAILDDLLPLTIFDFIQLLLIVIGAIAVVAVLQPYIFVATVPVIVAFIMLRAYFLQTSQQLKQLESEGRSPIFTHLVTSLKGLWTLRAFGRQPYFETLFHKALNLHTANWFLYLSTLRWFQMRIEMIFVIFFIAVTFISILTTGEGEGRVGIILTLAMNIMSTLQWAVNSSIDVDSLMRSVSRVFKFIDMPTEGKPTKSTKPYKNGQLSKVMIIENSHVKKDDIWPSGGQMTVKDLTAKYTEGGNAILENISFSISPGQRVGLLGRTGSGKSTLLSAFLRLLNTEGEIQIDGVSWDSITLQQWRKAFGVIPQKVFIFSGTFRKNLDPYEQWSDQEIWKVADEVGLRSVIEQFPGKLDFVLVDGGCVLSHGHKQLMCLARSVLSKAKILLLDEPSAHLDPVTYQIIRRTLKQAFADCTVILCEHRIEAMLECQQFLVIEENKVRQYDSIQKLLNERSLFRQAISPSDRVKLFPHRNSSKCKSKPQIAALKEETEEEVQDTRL
The experiment can be described thus: HBE2 assay: Ussing chamber assay of CFTR-mediated short-circuit currents. The experiment is classed as cell-based. The settings on record: 3 μM corrector; F508del/MF-HBE cells; with 44 nM potentiator, 18-24 hours, 20% human serum. An outline of the steps: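 Corrector activity read as CFTR-dependent ISC (μA/cm^2): peak forskolin current minus post-inhibitor steady state. Measured at 37 °C, voltage clamp at 0 mV, on F508del/MF-HBE epithelia grown >14 days air-liquid interface in Ussing chambers.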
Turning to `Cc1cccc(C)c1-c1cc2nc(n1)NS(=O)(=O)c1cccc(c1)C(=O)N(Cc1cncc(N3CCCC[C@H]3C)n1)[C@@H](CCC(C)(C)F)CO2` (single isomer, unassigned) [Compound 1328], the “HBE2 Activity at 3 μM (%)” value is on record as “++ (++ is 30-60%)”.

With `CCC(C)(C)C[C@@H]1COc2cc(-c3c(C)cccc3C)nc(n2)NS(=O)(=O)c2cccc(c2)C(=O)N1Cc1cncc(N2CC[C@H]2C)n1` [Compound 1861], the “HBE2 Activity at 3 μM (%)” value is reported as “+++ (+++ is >60+)”.

`Cc1cccc(C)c1-c1cc2nc(n1)NS(=O)(=O)c1cccc(c1)C(=O)N(Cc1cnc3cc(C(C)C)n(C)c3n1)[C@H](CCC(C)(C)C)CO2` [Compound 1826]: the “HBE2 Activity at 3 μM (%)” value is on record as “+++ (+++ is >60+)”.

As to `CCC(C)(C)C[C@@H]1COc2cc(-c3c(C)cccc3C)nc(n2)NS(=O)(=O)c2cccc(c2)C(=O)N1Cc1cncc(N2CC[C@H]2C)n1` [Compound 1860], the “HBE2 Activity at 3 μM (%)” value was “++ (++ is 30-60%)”.

For `Cc1cccc(C)c1-c1cc2nc(n1)NS(=O)(=O)c1cccc(c1)C(=O)N(Cc1cncc(N3CCCOC4CCC43)n1)[C@H](CC(C)(C)C)CO2` (stereo partly drawn) [Compound 1332, (11R)-6-(2,6-Dimethylphenyl)-11-(2,2-dimethylpropyl)-12-[[6-(2-oxa-6-azabicyclo[5.2.0]nonan-6-yl)pyrazin-2-yl]methyl]-2,2-dioxo-9-oxa-2λ^6-thia-3,5,12,19-tetrazatricyclo[12.3.1.14,8]nonadeca-1(18),4(19),5,7,14,16-hexaen-13-one], the “HBE2 Activity at 3 μM (%)” value is “+++ (+++ is >60+)”.

Take `Cc1cccc(C)c1-c1cc2nc(n1)NS(=O)(=O)c1cccc(c1)C(=O)N(Cc1cncc(N3CC[C@H]3C)n1)[C@H](CC1CCCCC1)CO2` [Compound 1823]: the “HBE2 Activity at 3 μM (%)” value is recorded as “+++ (+++ is >60+)”.

As for `Cc1cccc(C)c1-c1cc2nc(n1)NS(=O)(=O)c1cccc(c1)C(=O)N(Cc1cncc(N3CCCC[C@H]3C)n1)[C@H](CC(C)(C)F)CO2` [Compound 1805], the “HBE2 Activity at 3 μM (%)” value is on record as “+++ (+++ is >60+)”.

In the case of `Cc1cccc(C)c1-c1cc2nc(n1)NS(=O)(=O)c1cccc(c1)C(=O)N(Cc1cnc3cc(C(C)C)n(C)c3n1)[C@H](CC1CC1)CO2` [Compound 1820], the “HBE2 Activity at 3 μM (%)” value is reported as “+++ (+++ is >60+)”.

On to `Cc1cccc(C)c1-c1cc2nc(n1)NS(=O)(=O)c1cccc(c1)C(=O)N(Cc1cncc(N(C)C3CCC3)n1)[C@@H]1CCN(C3CC4(CC4)C3)C[C@H]1O2` [Compound 1767], for which the “HBE2 Activity at 3 μM (%)” value was “+++ (+++ is >60+)”.

On to `Cc1cccc(C)c1-c1cc2nc(n1)NS(=O)(=O)c1cccc(c1)C(=O)N(Cc1cncc(N3[C@H](C)CC[C@@H]3C)n1)[C@H](CCC(C)(C)C)CO2` [Compound 1917], for which the “HBE2 Activity at 3 μM (%)” value is recorded as “+++ (+++ is >60+)”.

Still in this experiment, the particulars now being: 3 μM; F508del/MF-HBE cells; with 44 nM potentiator; 18-24 hours; 20% human serum.
In the case of `CC(=O)N(C)c1cncc(CN2C(=O)c3cccc(c3)S(=O)(=O)Nc3nc(cc(-c4c(C)cccc4C)n3)OC[C@H]2CC(C)(C)C)n1` [Compound 1581], the “HBE2 Activity at 3 μM (%)” value was “+++ (+++ is >60+)”.

Take `Cc1cccc(C)c1-c1cc2nc(n1)NS(=O)(=O)c1cccc(c1)C(=O)N(Cc1ncc(N3CC(C)(C)C3)cn1)[C@H](CCC1CC1)CO2` [Compound 1595]: the “HBE2 Activity at 3 μM (%)” value is reported as “+++ (+++ is >60+)”.

As for `COCC1CC2(CCN2c2cncc(CN3C(=O)c4cccc(c4)S(=O)(=O)Nc4nc(cc(-c5c(C)cccc5C)n4)OC[C@H]3CC(C)(C)C)n2)C1` (stereo partly drawn) [Compound 1707], the “HBE2 Activity at 3 μM (%)” value is “+++ (+++ is >60+)”.

Consider `Cc1cccc(C)c1-c1cc2nc(n1)NS(=O)(=O)c1cccc(c1)C(=O)N(Cc1cncc(N3CCC[C@H]4CC[C@H]43)n1)[C@H](CC(C)(C)C)CO2` (single isomer, unassigned) [Compound 1315], for which the “HBE2 Activity at 3 μM (%)” value is on record as “+++ (+++ is >60+)”.

Still in this experiment, the particulars now being: F508del/MF-HBE cells; with 44 nM potentiator; 18-24 hours; 20% human serum.
As a reminder, the EC50 is the concentration at which the effect is half-maximal. `Cc1cccc(C)c1-c1cc2nc(n1)NS(=O)(=O)c1cccc(c1)C(=O)N(Cc1cncc(N3CC[C@@H]4COC[C@@H]43)n1)[C@H](CC(C)(C)C)CO2` [Compound 1541]: the EC50 was under 1 µM.

Consider `Cc1cccc(C)c1-c1cc2nc(n1)NS(=O)(=O)c1cccc(c1)C(=O)N(Cc1cncc(N3CCC[C@H]4CC[C@H]43)n1)[C@H](CC(C)(C)C)CO2` (single isomer, unassigned) [Compound 1315], for which the EC50 was under 1 µM.

The same experiment, now with this note: F508del/MF-HBE cells; with 44 nM potentiator; 18-24 hours; 20% human serum; read-out: HBE2 Max activity (%).
As to `Cc1cccc(C)c1-c1cc2nc(n1)NS(=O)(=O)c1cccc(c1)C(=O)N(Cc1cncc(N3CC[C@@H]4COC[C@@H]43)n1)[C@H](CC(C)(C)C)CO2` [Compound 1541], the Emax was over 60%.

In the case of `Cc1cccc(C)c1-c1cc2nc(n1)NS(=O)(=O)c1cccc(c1)C(=O)N(Cc1cncc(N3CCC[C@H]4CC[C@H]43)n1)[C@H](CC(C)(C)C)CO2` (single isomer, unassigned) [Compound 1315], the Emax is over 60%.
